Source: paper PMC10518257 (Nature Cancer, 2023)
Several values for one entry are separate records, joined by “and”; a condition that tells them apart may be missing. Identical values can stand only once. Like-named read-outs stand apart in the source and are kept apart here.

Experiments:
[1] = test system: LUAD-0087AS2 cells; assay: Growth inhibition (alamarBlue, 96 h); type: cell-based, human; conditions: for raw viability signal (Source Data Fig. 3b-c): LUAD-0087AS2, replicate sets
[2] = target: panel of 255 (vepafestinib) or 256 (all other inhibitors) recombinant kinases; assay: Kinase selectivity profiling at a single concentration (Carna Biosciences); type: biochemical; conditions: 23 nM, panel of 255 recombinant kinases
[3] = target: T1, panel of 255 (vepafestinib) or 256 (all other inhibitors) recombinant kinases (Homo sapiens, UniProt P16234); assay: as above; type: biochemical; conditions: 23 nM
T1 construct: purchased Carna Biosciences
T1 sequence (P16234 24-1089): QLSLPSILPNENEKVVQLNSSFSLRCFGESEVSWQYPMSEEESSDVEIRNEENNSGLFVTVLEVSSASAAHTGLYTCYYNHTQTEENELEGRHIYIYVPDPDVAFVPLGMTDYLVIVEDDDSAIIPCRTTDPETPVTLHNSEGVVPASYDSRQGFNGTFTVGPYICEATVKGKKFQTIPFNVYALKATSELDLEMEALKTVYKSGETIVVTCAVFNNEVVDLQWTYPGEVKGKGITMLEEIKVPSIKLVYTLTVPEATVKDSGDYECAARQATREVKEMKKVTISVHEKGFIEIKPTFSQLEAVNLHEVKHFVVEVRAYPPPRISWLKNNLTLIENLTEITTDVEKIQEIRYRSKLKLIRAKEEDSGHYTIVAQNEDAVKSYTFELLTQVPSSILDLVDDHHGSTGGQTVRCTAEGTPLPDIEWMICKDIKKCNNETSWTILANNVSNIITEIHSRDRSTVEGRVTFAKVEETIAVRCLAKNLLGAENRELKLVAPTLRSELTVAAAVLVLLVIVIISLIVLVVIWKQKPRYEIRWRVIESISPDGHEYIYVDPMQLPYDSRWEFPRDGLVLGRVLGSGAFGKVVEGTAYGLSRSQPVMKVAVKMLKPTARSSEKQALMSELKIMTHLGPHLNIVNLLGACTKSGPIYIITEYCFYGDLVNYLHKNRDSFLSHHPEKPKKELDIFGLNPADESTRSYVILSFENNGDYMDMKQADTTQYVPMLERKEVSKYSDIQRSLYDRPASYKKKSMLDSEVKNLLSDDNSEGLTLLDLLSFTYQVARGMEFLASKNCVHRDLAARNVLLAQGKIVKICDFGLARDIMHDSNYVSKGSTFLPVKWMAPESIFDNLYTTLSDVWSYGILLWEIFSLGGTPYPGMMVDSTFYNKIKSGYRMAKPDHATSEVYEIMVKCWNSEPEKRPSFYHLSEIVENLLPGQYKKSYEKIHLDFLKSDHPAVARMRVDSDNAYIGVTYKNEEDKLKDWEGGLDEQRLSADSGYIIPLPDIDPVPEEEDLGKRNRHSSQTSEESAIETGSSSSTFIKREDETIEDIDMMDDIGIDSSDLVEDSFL

[4] = target: T2, panel of 255 (vepafestinib) or 256 (all other inhibitors) recombinant kinases (Homo sapiens, UniProt P35916); assay: as above; type: biochemical; conditions: 23 nM
T2 construct: purchased Carna Biosciences
T2 sequence (P35916 25-1363): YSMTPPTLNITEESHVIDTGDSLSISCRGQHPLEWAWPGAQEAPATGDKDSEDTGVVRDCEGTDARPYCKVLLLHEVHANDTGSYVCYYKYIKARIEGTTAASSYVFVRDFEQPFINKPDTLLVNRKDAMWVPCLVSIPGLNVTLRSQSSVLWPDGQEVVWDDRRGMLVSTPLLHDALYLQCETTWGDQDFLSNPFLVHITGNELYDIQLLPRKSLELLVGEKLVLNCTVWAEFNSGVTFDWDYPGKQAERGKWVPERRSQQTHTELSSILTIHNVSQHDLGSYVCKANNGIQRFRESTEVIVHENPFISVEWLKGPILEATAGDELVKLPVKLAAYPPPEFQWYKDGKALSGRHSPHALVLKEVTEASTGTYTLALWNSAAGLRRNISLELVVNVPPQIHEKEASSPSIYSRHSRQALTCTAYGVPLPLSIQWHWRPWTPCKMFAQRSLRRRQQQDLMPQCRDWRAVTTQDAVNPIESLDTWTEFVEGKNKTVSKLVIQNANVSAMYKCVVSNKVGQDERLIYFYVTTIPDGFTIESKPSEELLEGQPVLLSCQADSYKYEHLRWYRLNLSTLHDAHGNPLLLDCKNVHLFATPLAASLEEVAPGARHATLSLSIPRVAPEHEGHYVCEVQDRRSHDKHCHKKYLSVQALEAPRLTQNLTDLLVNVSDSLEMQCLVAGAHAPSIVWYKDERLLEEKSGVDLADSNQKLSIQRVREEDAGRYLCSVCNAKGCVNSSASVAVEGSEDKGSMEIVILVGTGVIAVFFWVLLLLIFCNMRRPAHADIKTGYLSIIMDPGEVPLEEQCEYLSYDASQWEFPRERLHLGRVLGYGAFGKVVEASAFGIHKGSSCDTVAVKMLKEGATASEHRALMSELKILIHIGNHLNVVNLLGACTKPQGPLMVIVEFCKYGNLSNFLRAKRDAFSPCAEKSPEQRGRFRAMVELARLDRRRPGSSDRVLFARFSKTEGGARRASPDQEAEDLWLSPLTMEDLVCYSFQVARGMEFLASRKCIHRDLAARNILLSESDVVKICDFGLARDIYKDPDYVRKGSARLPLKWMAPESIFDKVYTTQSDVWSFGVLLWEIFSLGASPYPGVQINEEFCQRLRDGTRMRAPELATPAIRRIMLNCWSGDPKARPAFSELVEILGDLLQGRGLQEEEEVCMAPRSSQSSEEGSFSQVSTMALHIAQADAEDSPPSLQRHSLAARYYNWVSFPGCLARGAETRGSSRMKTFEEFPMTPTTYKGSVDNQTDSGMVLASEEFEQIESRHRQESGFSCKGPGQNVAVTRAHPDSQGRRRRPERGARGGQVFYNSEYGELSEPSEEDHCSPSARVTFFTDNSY

[5] = test system: Ba/F3-RET^M918T; assay: Growth inhibition assay in Ba/F3 cells (CellTiter-Glo, 72 h); type: cell-based; conditions: Mus musculus, BaF3, 72 h, read-out: GI50 value (Mean ± SD), Ba/F3-RET^M918T, CellTiter-Glo, 72 h
[6] = test system: Ba/F3 cells expressing KIF5B–RET^G810C; assay: as above; type: cell-based; conditions: Ba/3-KIF5B-RET-G810C; replicate Sets 1-3
[7] = test system: LUAD-0077AS1 PDX; assay: PDX efficacy study; type: in vivo, NSG mice; parameters: Tumor volume: unit not given here; conditions: for Area Under Curve Mean: Fig. 6b LUAD-0077AS1 tumor growth; for Change in tumor volume (block without heading, Fig. 6b) / Tumor volume: LUAD-0077AS1, individual animals
[8] = test system: ECLC5B cells; assay: Growth inhibition (alamarBlue, 96 h); type: cell-based, human; conditions: for raw viability signal (Source Data Fig. 3b-c): ECLC5B, replicates
[9] = test system: Ba/F3-CCDC6::RET; assay: Growth inhibition assay in Ba/F3 cells (CellTiter-Glo, 72 h); type: cell-based
[10] = Homo sapiens, 96 h, read-out: IC50 for Inhibition of Growth (95% CI)

For `COCc1ccc(NC(=O)c2c(C#CCN3CCOCC3)n(C3(C)CC3)c3ncnc(N)c23)cc1` [Vepafestinib, 4-amino-N-[4-(methoxymethyl)phenyl]-7-(1-methylcyclopropyl)-6-[3-(morpholin-4-yl)prop-1-yn-1-yl]-7H-pyrrolo[2,3-d]pyrimidine-5-carboxamide], which IC50 [1, 10] is on record?
Its IC50 is 52 nM.

What about the “raw viability signal (Source Data Fig. 3b-c)” value (shortened to “raw viability signal”) ([1]; 0.01 nM) of the same molecule?
Its value is 11228 and 14615.9 and 14016.7 and 14250.8.

What about the “raw viability signal” value ([1]; 0.1 nM) of the same molecule?
Its value is 11523.4 and 15236.1 and 13636.1 and 15169.5.

What about the “raw viability signal” value ([1]; 1 nM) of the same molecule?
The value was 9899.07 and 15123.8 and 13931.5 and 14165.7.

What about the “raw viability signal” value ([1]; 10 nM) of the same molecule?
The value was 10547.8 and 8202.29 and 13996.8 and 13713.3.

And the “raw viability signal” value ([1]; 100 nM)?
Its value is 5765.45 and 5334.21 and 3421.1 and 4734.04.

And the “raw viability signal” value ([1]; 1000 nM)?
The value was 2843.25 and 5162.03 and 1552.19 and 1343.68.

What about the “raw viability signal” value ([1]; 10000 nM) of the same molecule?
The value was 1385.86 and 3882.23 and 977.192 and 943.954.

What about the “kinases inhibited by >50%” value [2] of the same molecule?
The value was “one and RET was the only kinase inhibited by >50%”.

What about the “% Inhibiton PDGFRα” value [3] of the same molecule?
The value was 12.4%.

What about the “% Inhibiton FLT4” value [4] of the same molecule?
Its value is 46.9%.

What about the GI50 [5] of the same molecule?
The GI50 was 1.94 ± 0.88 nM.

And the GI50 [6]?
The GI50 was 14.5 nM.

What about the “Area Under Curve Mean” value ([7]; 50 mg/kg BID) of the same molecule?
Its value is 728.7.

What about the “Area Under Curve Mean” value ([7]; 100 mg/kg QD) of the same molecule?
The value was 549.

And the “Change in tumor volume (block without heading, Fig. 6b)” value ([7]; 50 mg/kg BID)?
Its value is 60.867 and 57.9883 and 49.0287 and 27.5983 and 23.1229.

What about the Tumor volume ([7]; 50 mg/kg BID, treatment day 0) of the same molecule?
Its Tumor volume is 82.36 (2×) and 88.7 and 83.97 and 85.5.

What about the Tumor volume ([7]; 50 mg/kg BID, treatment day 4) of the same molecule?
The Tumor volume was 85.5 (3×) and 82.36 and 83.97.

What about the Tumor volume ([7]; 50 mg/kg BID, treatment day 7) of the same molecule?
Its Tumor volume is 80.89 (2×) and 82.36 (2×) and 85.5.

And the Tumor volume ([7]; 50 mg/kg BID, treatment day 11)?
The Tumor volume was 80.89 (3×) and 74.9 and 77.87.

What about the Tumor volume ([7]; 50 mg/kg BID, treatment day 14) of the same molecule?
Its Tumor volume is 95.03 and 87.03 and 102.07 (3×).

What about the Tumor volume ([7]; 50 mg/kg BID, treatment day 19) of the same molecule?
The Tumor volume was 105.09 and 109.21 and 122.74 and 135.08 (2×).

What about the Tumor volume ([7]; 50 mg/kg BID, treatment day 22) of the same molecule?
The Tumor volume was 186.96 and 181.98 and 192.42 and 159.66 and 197.96.

And the Tumor volume ([7]; 50 mg/kg BID, treatment day 25)?
The Tumor volume was 232.25 (2×) and 250.35 (2×) and 247.99.

What about the “Change in tumor volume (block without heading, Fig. 6b)” value ([7]; 100 mg/kg QD) of the same molecule?
The value was 67.7861 and 60.2113 and 54.3275 and 44.2105 and 25.5424.

What about the Tumor volume ([7]; 100 mg/kg QD, treatment day 0) of the same molecule?
Its Tumor volume is 82.36 and 83.97 and 87.11 and 85.5 (2×).

What about the Tumor volume ([7]; 100 mg/kg QD, treatment day 4) of the same molecule?
Its Tumor volume is 85.5 (2×) and 83.97 (2×) and 88.7.

What about the Tumor volume ([7]; 100 mg/kg QD, treatment day 7) of the same molecule?
The Tumor volume was 82.36 and 72.18 and 79.42 and 77.87 and 79.29.

What about the Tumor volume ([7]; 100 mg/kg QD, treatment day 11) of the same molecule?
Its Tumor volume is 79.29 (2×) and 65.37 and 72.18 and 77.87.

What about the Tumor volume ([7]; 100 mg/kg QD, treatment day 14) of the same molecule?
Its Tumor volume is 114.83 and 111.18 and 83.83 (3×).

And the Tumor volume ([7]; 100 mg/kg QD, treatment day 19)?
The Tumor volume was 131.95 (2×) and 140.89 and 109.36 and 123.3.

What about the Tumor volume ([7]; 100 mg/kg QD, treatment day 22) of the same molecule?
Its Tumor volume is 136.38 and 156.56 and 135.08 and 138.33 and 147.55.

What about the Tumor volume ([7]; 100 mg/kg QD, treatment day 25) of the same molecule?
Its Tumor volume is 213.8 and 205.8 and 189.86 and 177.9 and 205.88.

And the “raw viability signal” value ([8]; 0.01 nM)?
Its value is 9826.46 and 7916.25 and 19010.8.

What about the “raw viability signal” value ([8]; 0.1 nM) of the same molecule?
The value was 10351 and 8612.52 and 20662.3.

And the “raw viability signal” value ([8]; 1 nM)?
The value was 10751.4 and 8385.29 and 18478.3.

And the “raw viability signal” value ([8]; 10 nM)?
The value was 4019.62 and 1873.82 and 8615.92.

What about the “raw viability signal” value ([8]; 100 nM) of the same molecule?
Its value is 3307.08 and 1329.05 and 4450.27.

And the “raw viability signal” value ([8]; 1000 nM)?
Its value is 2927.89 and 1305.13 and 4874.13.

What about the “raw viability signal” value ([8]; 10000 nM) of the same molecule?
The value was 1756.2 and 2012.52 and 6114.45.

And the IC50 [8, 10]?
The IC50 was 7 nM.

What about the GI50 ([9]; BaF3/CCDC6-RET, 72 h, read-out: GI50 value (Mean ± SD), Ba/F3-CCDC6::RET, CellTiter-Glo, 72 h) of the same molecule?
Its GI50 is 22 ± 9.3 nM.

What about the GI50 ([9]; read-out: GI50 values, Ba/F3-CCDC6::RET, individual sets (replicate experiments)) of the same molecule?
Its GI50 is 14 nM and 32.2 nM and 19.9 nM.
